Laboratory results published in publication PMC4643977, “Negative Feedbacks by Isoprenoids on a Mevalonate Kinase Expressed in the Corpora Allata of Mosquitoes” (PLoS ONE, 2015).
One block for each molecule: values may come before it.

Legend:
[1] = biological target: T1, Aedes aegypti mevalonate kinase (AaMVK) (Aedes aegypti, UniProt Q176C1); test: PK/LDH-coupled spectrophotometric kinase assay, Ki from varied ATP and inhibitor; format: biochemical
T1 construct: gene 5567998; recombinant His-tagged full-length AaMVK (397 aa) expressed in E. coli
T1 sequence (Q176C1 1-397): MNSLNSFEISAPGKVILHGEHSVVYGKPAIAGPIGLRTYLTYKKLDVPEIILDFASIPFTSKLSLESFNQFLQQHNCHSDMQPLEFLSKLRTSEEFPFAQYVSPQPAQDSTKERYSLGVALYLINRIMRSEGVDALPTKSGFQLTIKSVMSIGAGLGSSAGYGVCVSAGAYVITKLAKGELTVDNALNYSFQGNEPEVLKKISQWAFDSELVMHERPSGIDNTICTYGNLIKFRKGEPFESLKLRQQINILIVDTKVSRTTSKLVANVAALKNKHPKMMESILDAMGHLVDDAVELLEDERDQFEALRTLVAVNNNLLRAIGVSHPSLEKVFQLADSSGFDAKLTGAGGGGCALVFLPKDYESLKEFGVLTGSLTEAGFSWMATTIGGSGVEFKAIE

[2] = substrate: Nc1ncnc2c1ncn2[C@@H]1O[C@H](COP(=O)(O)OP(=O)(O)OP(=O)(O)O)[C@@H](O)[C@H]1O; test: Michaelis-Menten kinetics, PK/LDH-coupled assay (Km); format: biochemical, Aedes aegypti; conditions: Mg2+
[3] = substrate: C[C@@](O)(CCO)CC(=O)O; test: purified protein; conditions: Mg2+

Molecule: CC(C)=CCC/C(C)=C/COP(=O)(O)OP(=O)(O)O [GPP, geranyl diphosphate]
Ki [1]: 550 ± 280 nM

B1: Aedes aegypti mevalonate kinase (AaMVK) (Aedes aegypti) (protein)
chain: T1 sequence (Q176C1 1-397)
notes: recombinant His-tagged full-length AaMVK (397 aa) expressed in E. coli
Km [2]: 140 ± 28 µM | Km [3]: 90 ± 18 µM

The remaining molecules from weak to strong by Ki [1], led by results:

Ki [1]: 930 ± 190 nM
Molecule: CC(C)=CCC/C(C)=C/CC/C(C)=C/CC/C(C)=C/COP(=O)(O)OP(=O)(O)O [GGPP, geranyl-geranyl pyrophosphate]

Ki [1]: 440 ± 200 nM
Molecule: CC(C)=CCC/C(C)=C/CC/C(C)=C/CO[P@@](=O)(O)OP(=O)(O)O (stereo in doubt) [FPP, farnesyl diphosphate]
